In patent US4327097A, “Novel penicillins” (Toyama Chemical Co., Ltd., priority 1974, dated 1982):
Converted amounts (≈) assume the structure as drawn. Where a name gives a salt, the structure may show the parent alone. Values belong to the compound of their own block, whether it stands above or below them.

Key:
Format in all cases: cell-based
Escherichia coli = assay: MIC against clinical isolates; details: unit assumed
Shigella flexneri = assay: MIC against clinical isolates; details: Table 5-5, clinical isolate; unit assumed
Protocol: (§1) The minimum inhibitory concentration (MIC) was determined by the plate method disclosed in "Chemotherapy" (Japan), Vol. 16, (1968), pages 98-99. The culture medium used was a Heart infusion agar (pH 7.4). The number of the cells per plate used in the inoculum was 10^4 (10^6 cells/ml).
(§2) MIC was determined in the same manner as in the preceding paragraph (1).

Shigella sonnei = assay: MIC against clinical isolates; details: Table 5-5, clinical isolate; unit assumed
Protocol: as §1, §2

Staphylococcus aureus = assay: MIC against clinical isolates; details: Table 5-1, clinical isolate; unit assumed
Klebsiella pneumoniae [1] = assay: MIC, plate method, standard strains; details: unit assumed
Protocol: as §1

[2] = test system: Staphylococcus aureus 209p; assay: MIC, plate method, standard strains; details: Table 3, standard strain, Heart infusion agar pH 7.4; unit assumed
Protocol: as §1

Proteus vulgaris 3027 = assay: MIC, plate method, standard strains; details: unit assumed
Protocol: as §1

Escherichia coli NIHJ = assay: MIC, plate method, standard strains; details: unit assumed; for MIC Esche--richin coil NIHJ: Table 3, standard strain
Protocol: as §1

[3] = test system: Pseudomonas aeruginosa I.F.O.; assay: MIC, plate method, standard strains; details: Table 3, standard strain; unit assumed
Protocol: as §1

Pseudomonas aeruginosa = assay: MIC against clinical isolates; details: unit assumed
Klebsiella pneumoniae [4] = assay: MIC against clinical isolates; details: Table 6-4, clinical isolate; unit assumed

SMILES: CCCCN1CCN(C(=O)N[C@@H](C(=O)N[C@@H]2C(=O)N3[C@@H]2SC(C)(C)[C@@H]3C(=O)O)c2ccccc2)C(=O)C1 [Compound 14]
- MIC Escherichia coli GN 3435 (Escherichia coli; Table 5-2, clinical isolate): 6.25 µg/mL (≈ 11.8 µM)
- MIC Escherichia coli GN 3452 (Escherichia coli; Table 5-2, clinical isolate): 6.25 µg/mL (≈ 11.8 µM)
- MIC Escherichia coli GN 3481 (Escherichia coli; Table 5-2, clinical isolate): 6.25 µg/mL (≈ 11.8 µM)
- MIC Escherichia coli K-1 (Escherichia coli; Table 5-2, clinical isolate): 3.13 µg/mL (≈ 5.89 µM)
- MIC Escherichia coli K-4 (Escherichia coli; Table 5-2, clinical isolate): 6.25 µg/mL (≈ 11.8 µM)
- MIC Shigella flexneri JS 11215 (Shigella flexneri): 25 µg/mL (≈ 47 µM)
- MIC Shigella flexneri JS 11839 (Shigella flexneri): 3.13 µg/mL (≈ 5.89 µM)
- MIC Shigella sonnei JS 11232 (Shigella sonnei): 25 µg/mL (≈ 47 µM)
- MIC Shigella sonnei JS 11755 (Shigella sonnei): 6.25 µg/mL (≈ 11.8 µM)
- MIC Staphylococcus aureus F-2 (Staphylococcus aureus): 1.57 µg/mL (≈ 2.95 µM)
- MIC Staphylococcus aureus F-4 (Staphylococcus aureus): 6.25 µg/mL (≈ 11.8 µM)
- MIC Staphylococcus aureus MS 8588 (Staphylococcus aureus): 3.13 µg/mL (≈ 5.89 µM)
- MIC Staphylococcus aureus MS 8596 (Staphylococcus aureus): 3.13 µg/mL (≈ 5.89 µM)
- MIC Staphylococcus aureus MS 8684 (Staphylococcus aureus): 3.13 µg/mL (≈ 5.89 µM)
- MIC Staphylococcus aureus MS 8713 (Staphylococcus aureus): 3.13 µg/mL (≈ 5.89 µM)
- MIC Klebsiella pneumoniae (Klebsiella pneumoniae [1]; Table 3, standard strain): 3.13 µg/mL (≈ 5.89 µM)
- MIC Staphylococcus aureus 209p [2]: < 1.57 µg/mL
- MIC Proteus vulgaris 3027 (Proteus vulgaris 3027; Table 3, standard strain): < 1.57 µg/mL
- MIC Esche--richin coil NIHJ (Escherichia coli NIHJ): < 1.57 µg/mL

SMILES: CC1(C)S[C@@H]2[C@H](NC(=O)[C@H](NC(=O)N3CCN(C(=O)Nc4ccccc4)C(=O)C3)c3ccccc3)C(=O)N2[C@H]1C(=O)O [Compound 33]
- MIC Pseudomonas aeruginosa I.F.C [3]: 50 µg/mL (≈ 84.1 µM)
- MIC Staphylococcus aureus 209p [2]: < 1.57 µg/mL
- MIC Esche--richin coil NIHJ (Escherichia coli NIHJ): < 1.57 µg/mL

- MIC Klebsiella pneumoniae (Klebsiella pneumoniae [1]; Table 3, standard strain): 50 µg/mL (≈ 84.2 µM)
- MIC Pseudomonas aeruginosa I.F.C [3]: 100 µg/mL (≈ 168 µM)
- MIC Proteus vulgaris 3027 (Proteus vulgaris 3027; Table 3, standard strain): 50 µg/mL (≈ 84.2 µM)
SMILES: CC1(C)S[C@@H]2[C@H](NC(=O)[C@H](NC(=O)N3CC(=O)N(C(=O)c4ccccc4)CC3=O)c3ccccc3)C(=O)N2[C@H]1C(=O)O [Compound 34]

- MIC Pseudomonas aeruginosa I.F.C [3]: 100 µg/mL (≈ 173 µM)
SMILES: CC1(C)S[C@@H]2[C@H](NC(=O)[C@H](NC(=O)N3CC(=O)N(Cc4ccccc4)CC3=O)c3ccccc3)C(=O)N2[C@H]1C(=O)O [Compound 35]

- MIC Pseudomonas aeruginosa GN (Pseudomonas aeruginosa; Table 6-3, clinical isolate, strain number not given): 25 µg/mL (≈ 43.6 µM)
- MIC Pseudomonas aeruginosa GN4 (Pseudomonas aeruginosa; Table 6-3, clinical isolate): 12.5 µg/mL (≈ 21.8 µM)
SMILES: CCN1CCN(C(=O)NC(C(=O)NC2C(=O)N3C(C(=O)O)=C(COC(C)=O)CSC23)c2ccccc2)C(=O)C1=O (centres unmarked) [Compound No. 61]

- MIC Klebsiella pneumoniae (Klebsiella pneumoniae [1]; Table 4, standard strain): < 0.79 µg/mL
- MIC Escherichia coli NIHJ (Escherichia coli NIHJ; Table 4, standard strain): < 0.79 µg/mL
- MIC Pseudomonas aeruginosa GN4 (Pseudomonas aeruginosa; Table 6-3, clinical isolate): 12.5 µg/mL (≈ 21.6 µM)
- MIC Pseudomonas aeruginosa GN 1035 (Pseudomonas aeruginosa; Table 6-3, clinical isolate): 50 µg/mL (≈ 86.4 µM)
- MIC Pseudomonas aeruginosa GN 2565 (Pseudomonas aeruginosa; Table 6-3, clinical isolate): 50 µg/mL (≈ 86.4 µM)
SMILES: CN1CCN(C(=O)N[C@@H](C(=O)N[C@@H]2C(=O)N3C(C(=O)[O-])=C(C[n+]4ccccc4)CS[C@H]23)c2ccccc2)C(=O)C1=O [Compound No. 68]

SMILES: CC(=O)N1CCN(C(=O)N[C@@H](C(=O)N[C@@H]2C(=O)N3[C@@H]2SC(C)(C)[C@@H]3C(=O)O)c2ccccc2)C(=O)C1 [Example 1, sodium salt of 6-[D(-)-α-(4-acetyl-2-oxo-1-piperazinocarbonylamino)phenylacetamido]penicillanic acid]
- MIC Escherichia coli GN 3435 (Escherichia coli; Table 5-2, clinical isolate): 6.25 µg/mL
- MIC Escherichia coli GN 3452 (Escherichia coli; Table 5-2, clinical isolate): 12.5 µg/mL
- MIC Escherichia coli GN 3481 (Escherichia coli; Table 5-2, clinical isolate): 12.5 µg/mL
- MIC Escherichia coli K-1 (Escherichia coli; Table 5-2, clinical isolate): 6.25 µg/mL
- MIC Escherichia coli K-4 (Escherichia coli; Table 5-2, clinical isolate): 12.5 µg/mL
- MIC Shigella flexneri JS 11215 (Shigella flexneri): 100 µg/mL
- MIC Shigella flexneri JS 11839 (Shigella flexneri): 3.13 µg/mL
- MIC Shigella sonnei JS 11232 (Shigella sonnei): > 200 µg/mL
- MIC Shigella sonnei JS 11755 (Shigella sonnei): 12.5 µg/mL
- MIC Staphylococcus aureus F-1 (Staphylococcus aureus): 12.5 µg/mL
- MIC Staphylococcus aureus F-2 (Staphylococcus aureus): 3.13 µg/mL
- MIC Staphylococcus aureus F-4 (Staphylococcus aureus): 6.25 µg/mL
- MIC Staphylococcus aureus MS 8588 (Staphylococcus aureus): 6.25 µg/mL
- MIC Staphylococcus aureus MS 8596 (Staphylococcus aureus): 3.13 µg/mL
- MIC Staphylococcus aureus MS 8684 (Staphylococcus aureus): 3.13 µg/mL
- MIC Staphylococcus aureus MS 8713 (Staphylococcus aureus): 3.13 µg/mL

SMILES: Cc1nnc(SCC2=C(C(=O)O)N3C(=O)[C@@H](NC(=O)Cn4cnnn4)[C@H]3SC2)s1 [Sodium Cephazolin, reference compound]
- MIC Escherichia coli GN 3435 (Escherichia coli; Table 6-2, clinical isolate): 1.56 µg/mL
- MIC Escherichia coli GN 3452 (Escherichia coli; Table 6-2, clinical isolate): 1.56 µg/mL
- MIC Escherichia coli GN 3481 (Escherichia coli; Table 6-2, clinical isolate): 1.56 µg/mL
- MIC Escherichia coli K-1 (Escherichia coli; Table 6-2, clinical isolate): 1.56 µg/mL
- MIC Escherichia coli K-2 (Escherichia coli; Table 6-2, clinical isolate): 1.56 µg/mL
- MIC Escherichia coli K-4 (Escherichia coli; Table 6-2, clinical isolate): 3.13 µg/mL
- MIC Pseudomonas aeruginosa GN4 (Pseudomonas aeruginosa; Table 6-3, clinical isolate): > 200 µg/mL
- MIC Pseudomonas aeruginosa S-4 (Pseudomonas aeruginosa; Table 6-4, clinical isolate): > 200 µg/mL
- MIC Klebsiella pneumoniae GN 917 (Klebsiella pneumoniae [4]): 1.56 µg/mL
- MIC Klebsiella pneumoniae GN 4081 (Klebsiella pneumoniae [4]): 3.13 µg/mL
- MIC Klebsiella pneumoniae GN 4117 (Klebsiella pneumoniae [4]): 3.13 µg/mL

SMILES: CN1CCN(C(=O)NC(C(=O)N[C@@H]2C(=O)N3[C@@H]2SC(C)(C)[C@@H]3C(=O)O)c2cccs2)C(=O)C1=O (some centres unmarked) [compound 58]
- MIC Staphylococcus aureus 209p [2]: < 1.57 µg/mL
- MIC Esche--richin coil NIHJ (Escherichia coli NIHJ): < 1.57 µg/mL

SMILES: CC1(C)S[C@@H]2[C@H](NC(=O)[C@H](N)c3ccccc3)C(=O)N2[C@H]1C(=O)O [drawing 185, reference compound]
- MIC Staphylococcus aureus 209p [2]: < 1.57 µg/mL
- MIC Esche--richin coil NIHJ (Escherichia coli NIHJ): < 1.57 µg/mL

SMILES: CC1(C)S[C@@H]2[C@H](NC(=O)C(c3ccccc3)S(=O)(=O)O)C(=O)N2[C@H]1C(=O)O (some centres unmarked) [drawing 187, reference compound]
- MIC Esche--richin coil NIHJ (Escherichia coli NIHJ): 1.57 µg/mL (≈ 3.79 µM)

SMILES: CC(=O)N1CCN(C(=O)N[C@@H](C(=O)N[C@@H]2C(=O)N3[C@@H]2SC(C)(C)[C@@H]3C(=O)O)c2ccccc2)C(=O)C1 [drawing 188]
- MIC Klebsiella pneumoniae (Klebsiella pneumoniae [1]; Table 3, standard strain): 12.5 µg/mL (≈ 24.2 µM)
- MIC Proteus vulgaris 3027 (Proteus vulgaris 3027; Table 3, standard strain): 3.13 µg/mL (≈ 6.05 µM)

SMILES: CC(=O)OCC1=C(C(=O)O)N2C(=O)[C@@H](NC(=O)[C@H](N)c3ccccc3)[C@H]2SC1 [drawing 247, reference compound]
- MIC Klebsiella pneumoniae (Klebsiella pneumoniae [1]; Table 4, standard strain): < 1.57 µg/mL
- MIC Proteus vulgaris 3027 (Proteus vulgaris 3027; Table 4, standard strain): 100 µg/mL (≈ 247 µM)

SMILES: Cc1nnc(SCC2=C(C(=O)O)N3C(=O)[C@@H](NC(=O)Cn4cnnn4)[C@H]3SC2)s1 [drawing 249, reference compound]
- MIC Klebsiella pneumoniae (Klebsiella pneumoniae [1]; Table 4, standard strain): 1.57 µg/mL (≈ 3.45 µM)
- MIC Proteus vulgaris 3027 (Proteus vulgaris 3027; Table 4, standard strain): 200 µg/mL (≈ 440 µM)
